Data taken from US6811965B2, “Kidney perfusion solution containing nitric oxide donor, inhibitor of NOS2, glutathione, gluconate and methods of use” (priority 2000, dated 2004).

Assays:
[1] = system: porcine coronary arteries; conditions: porcine model of balloon angioplasty and subsequent endovascular radiation; cited from earlier work
Porcine kidneys = assay: Pulsatile perfusion preservation of explanted porcine kidneys; conditions: GSNO 90 micromolar, L-NIL 694 micromolar
Method: GSNO and L-NIL dihydrate hydrochloride were purchased from Alexis Corporation (San Diego, Calif.). Solution A was prepared by weighing out 30 milligrams of GSNO powder and adding it to 1 milliliter of Belzer Machine Perfusion solution (Transmed, Elk Grove, Minn.), and then injecting it into 1 liter of Belzer Perfusion solution while the perfusion solution was circulating through a Waters Instruments (Rochester, Minn.) kidney perfusion circuit (final concentration: 30 milligrams/liters; 90 micromolar). Solution B was prepared by weighing out 187 milligrams of L-NIL dihydrate hydrochloride powder and adding it to 3.5 milliliters of Belzer Machine Perfusion solution, and then injecting it into Solution A while the solution was circulating through a Waters Instruments kidney perfusion circuit (final concentration: 187 milligrams/liter; 694 micromolar).
Porcine kidneys were obtained following a warm ischemic time of 30-45 minutes. The kidneys were flushed with 1 L of Lactated Ringer's solution at 5 degrees C., and then flushed with 1 L Viaspan™ solution (DuPont, Wilmington, Del.) at 5 degrees C. The kidneys were then stored at 5 degrees C. for 3-30 h, at which time the kidneys were placed on a Waters Instruments (Rochester, Minn.) kidney perfusion circuit and perfused with 1 L of Belzer Machine Perfusion solution (Transmed, Elk Grove, Minn.). During the perfusion period, the kidneys were kept at a constant pressure of 40 mmHg. Eight kidneys were perfused with Belzer Machine Perfusion solution only, another eight kidneys were perfused with Belzer Machine Perfusion solution containing solution A (prepared as in Example 1), and a further eight kidneys were perfused with Belzer Machine Perfusion solution containing Solution B (prepared as in Example 1).
Hourly samples (3 ml total) were taken from each kidney for at least 5 hours, and in some cases 6 hours. Blood chemistry was analyzed using a GEMStat analyzer (Instruments Laboratory, Boston, Mass.). Statistical analyses were performed using Sigmastat software (SPSS, Chicago, Ill.).

[2] = statistically significant effect relative to control perfusion solution, 5-6 h

N[C@@H](CCC(=O)N[C@@H](CSN=O)C(=O)NCC(=O)O)C(=O)O [GSNO, S-nitrosoglutathione]
thrombosis [1]: suppress thrombosis
Vascular Resistance (Porcine kidneys; statistically significant effect relative to control (Belzer Machine Perfusion solution only), constant pressure 40 mmHg, hourly samples 5-6 h): Lower
Base Excess (Porcine kidneys; [2]): More
Ca2+ (Porcine kidneys; [2]): Higher
Hematocrit (Porcine kidneys; [2]): Lower
Oxygen Saturation (Porcine kidneys; [2]): Equal
Flow (Porcine kidneys; statistically significant effect relative to control perfusion solution, 40 mmHg, 5-6 h): Higher
